# Measurements: paper PMC7496096, “Functional Characterisation of ClpP Mutations Conferring Resistance to Acyldepsipeptide Antibiotics in Firmicutes” (Chembiochem, 2020)
# Like-named read-outs stand apart in the source and are kept apart here. Positions of bridges follow the written chain, without caps; N, C: chain ends. Non-standard residues stand in square brackets, D forms with d. Residues, ends and D or L forms follow the SMILES beside them. *: point of attachment. Octatrienoyl(2E,4E,6E) = C/C=C/C=C/C=C/C(=O)*; Pro(4R-Me) = C[C@H]1CN[C@H](C(=O)O)C1; NMeA = CN[C@@H](C)C(=O)O; X1 = CCC/C=C/C(=O)*
# Columns and labels:
# [1] = system: S. aureus 133; assay: microbe, parasite or virus in culture; format: cell-based, Staphylococcus aureus; settings: broth microdilution, Mueller-Hinton broth (without cation adjustment), CLSI, inoculum 5×10^4 CFU mL^−1, wild type
# Procedure: (§1) Determination of antibacterial activity: ADEP1 was purified from the culture supernatant of S. hawaiiensis NRRL 15010 as described.4 ADEPs 2, 4, 7, 9 were custom synthesised by EMC Microcollections, Tübingen, or provided by AiCuris, Wuppertal, Germany. The minimal inhibitory concentration (MIC) was determined by broth microdilution in Mueller‐Hinton broth (without cation adjustment) according to the guidelines of the Clinical Laboratory Standards Institute (CLSI).69 The inoculum was set to 5×10^4 CFU mL^−1 to allow some distance to the determined spontaneous resistance frequencies. […] All other ADEPs were used from DMSO stock solutions kept at −20 °C.
# [2] = system: S. aureus ATCC 29213; assay: microbe, parasite or virus in culture; format: cell-based, Staphylococcus aureus; settings: broth microdilution, Mueller-Hinton broth (without cation adjustment), CLSI, inoculum 5×10^4 CFU mL^−1, wild type
# Procedure: as §1
# [3] = system: B. subtilis 168; assay: microbe, parasite or virus in culture; format: cell-based, Bacillus subtilis; settings: broth microdilution, Mueller-Hinton broth (without cation adjustment), CLSI, inoculum 5×10^4 CFU mL^−1, wild type
# Procedure: as §1
# [4] = system: E. faecalis ATCC 29212; assay: microbe, parasite or virus in culture; format: cell-based, Enterococcus faecalis; settings: broth microdilution, Mueller-Hinton broth (without cation adjustment), CLSI, inoculum 5×10^4 CFU mL^−1, wild type
# Procedure: as §1
# [5] = system: S. aureus 133; assay: Spontaneous resistance rate on ADEP-containing agar; format: cell-based, Staphylococcus aureus; settings: ADEP exposure 4× MIC in Mueller-Hinton agar; 5×10^6 cells plated, colonies counted after 24 h at 37 °C
# Procedure: (§2) Screening for ADEP‐resistant mutants and determination of resistance rates: Single colonies of wild‐type strains grown on Mueller‐Hinton agar plates overnight were suspended in sterile saline and a final inoculum of 5×10^6 cells was spread on plates supplemented with different ADEP congeners at 4× and 10× the MIC. For B. subtilis strain 3xclpP, ADEP7‐containing Mueller‐Hinton agar plates were additionally supplemented with 1 mM IPTG. Resistant colonies were counted after 24 h at 37 °C and colonies were randomly chosen for MIC determinations and sequencing. Mutations in the clpP gene of the respective isolated mutants were analysed by amplifying the clpP gene (and upstream promoter region) by PCR and sequencing of the resulting PCR amplicons (LGC genomics). Sequencing data were analysed by using SnapGene software (GSL Biotech).
# [6] = system: S. aureus ATCC 29213; assay: as above; format: cell-based, Staphylococcus aureus; settings: ADEP exposure 4× MIC in Mueller-Hinton agar; 5×10^6 cells plated, colonies counted after 24 h at 37 °C
# Procedure: as §2
# [7] = system: S. aureus; assay: MIC against S. aureus, summary of Table 1; format: cell-based, Staphylococcus aureus; settings: text summary of Table 1, strain not named
# Procedure: as §1
# [8] = system: E. faecalis 27159; format: cell-based, Enterococcus faecalis; settings: broth microdilution, Mueller-Hinton broth; wildtype
# Procedure: as §1
# [9] = system: S. pyogenes Wacker; format: cell-based, Streptococcus pyogenes; settings: broth microdilution, Mueller-Hinton broth; wildtype
# Procedure: as §1
# [10] = system: S. pneumoniae G9A; format: cell-based, Streptococcus pneumoniae; settings: broth microdilution, Mueller-Hinton broth; wildtype
# Procedure: as §1
# [11] = system: E. faecalis RC1; format: cell-based, Enterococcus faecalis; settings: resistant clone of E. faecalis 27159; ClpP G100→STOP (A96→V; M99→Y), premature stop
# Procedure: as §1, §2
# [12] = system: E. faecalis RC2; format: cell-based, Enterococcus faecalis; settings: resistant clone of E. faecalis 27159; ClpP H123→Q, active site
# Procedure: as §1, §2
# [13] = system: E. faecalis RC3; format: cell-based, Enterococcus faecalis; settings: resistant clone of E. faecalis 27159; ClpP G74→D (ClpP core; α3)
# Procedure: as §1, §2
# [14] = system: E. faecalis RC4; format: cell-based, Enterococcus faecalis; settings: resistant clone of E. faecalis 27159; ClpP S43→STOP, premature stop
# Procedure: as §1, §2
# [15] = system: E. faecalis RC5; format: cell-based, Enterococcus faecalis; settings: resistant clone of E. faecalis 27159; ClpP A180→V (C-terminus; α7)
# Procedure: as §1, §2
# [16] = system: E. faecalis RC6; format: cell-based, Enterococcus faecalis; settings: resistant clone of E. faecalis 27159; ClpP R147→H (equatorial interface; α5)
# Procedure: as §1, §2
# [17] = system: E. faecalis RC7; format: cell-based, Enterococcus faecalis; settings: resistant clone of E. faecalis 27159; ClpP G68→D (ClpP core)
# Procedure: as §1, §2
# [18] = system: E. faecalis RC8; format: cell-based, Enterococcus faecalis; settings: resistant clone of E. faecalis 27159; ClpP D170→Y, oligomerisation sensor
# Procedure: as §1, §2
# [19] = system: S. pyogenes RC1; format: cell-based, Streptococcus pyogenes; settings: resistant clone of S. pyogenes Wacker; Y insertion after N40 (ClpP core; α2)
# Procedure: as §1
# as §2, with “Resistant colonies were counted after 24 h at 37 °C and colonies were randomly chosen for MIC determinations and sequencing.” left out
# [20] = system: S. pyogenes RC2; format: cell-based, Streptococcus pyogenes; settings: resistant clone of S. pyogenes Wacker; ClpP L46→P (ClpP core; α2)
# Procedure: as §1
# as §2, with “Resistant colonies were counted after 24 h at 37 °C and colonies were randomly chosen for MIC determinations and sequencing.” left out
# [21] = system: S. pneumoniae RC1; format: cell-based, Streptococcus pneumoniae; settings: resistant clone of S. pneumoniae G9A; ClpP A94→G (ClpP core; β4)
# Procedure: as §1, §2
# [22] = system: S. pneumoniae RC2; format: cell-based, Streptococcus pneumoniae; settings: resistant clone of S. pneumoniae G9A; ClpP START→I, no expression
# Procedure: as §1, §2
# [23] = system: S. pneumoniae RC3; format: cell-based, Streptococcus pneumoniae; settings: resistant clone of S. pneumoniae G9A; ClpP R171→H, oligomerisation sensor
# Procedure: as §1, §2
# [24] = system: B. subtilis RC13; format: cell-based, Bacillus subtilis; settings: resistant clone of B. subtilis 168; ClpP I93→STOP, premature stop
# Procedure: as §1, §2
# [25] = system: B. subtilis RC14; format: cell-based, Bacillus subtilis; settings: resistant clone of B. subtilis 168; ClpP G107→S (ClpP core)
# Procedure: as §1, §2
# [26] = system: B. subtilis RC15; format: cell-based, Bacillus subtilis; settings: resistant clone of B. subtilis 168; ClpP G69→S (ClpP core)
# Procedure: as §1, §2
# [27] = system: B. subtilis RC16; format: cell-based, Bacillus subtilis; settings: resistant clone of B. subtilis 168; ClpP I44→F (ClpP core; α2)
# Procedure: as §1, §2
# [28] = system: B. subtilis RC17; format: cell-based, Bacillus subtilis; settings: resistant clone of B. subtilis 168; ClpP D172→V, active site
# Procedure: as §1, §2
# [29] = system: B. subtilis RC18; format: cell-based, Bacillus subtilis; settings: resistant clone of B. subtilis 168; ClpP L190→S, ADEP binding site
# Procedure: as §1, §2
# [30] = system: B. subtilis RC19; format: cell-based, Bacillus subtilis; settings: resistant clone of B. subtilis 168; ClpP Y183→C (C-terminus; α7)
# Procedure: as §1, §2
# [31] = Stability of dissolved compound; format: physicochemical; settings: dissolved in DMSO; reason for fresh dissolution before MIC determination
# Procedure: as §1
# [32] = system: B. subtilis, Enterococcus faecium, E. faecalis, S. pneumoniae, and Streptococcus pyogenes; assay: Spontaneous resistance frequency, further Firmicutes; format: cell-based; settings: same range as the S. aureus resistance rates (10^−6)
# Procedure: as §2
smiles,measurement,setting,value
"C[C@H]1c2cccc(O)c2C(=O)C2=C(O)[C@]3(O)C(=O)C(C(N)=O)=C(O)[C@@H](N(C)C)[C@@H]3[C@@H](O)[C@@H]21 [Doxycycline, reference compound]",MIC,"[1]; Staphylococcus aureus, 133, read-out: MIC",0.06 µg/mL
same,MIC,"[2]; Staphylococcus aureus, ATCC29213, read-out: MIC",0.06 µg/mL
same,MIC,"[3]; Bacillus subtilis, 168, read-out: MIC",0.125 µg/mL
same,MIC,"[4]; Enterococcus faecalis, ATCC29212, read-out: MIC",4 to 8 µg/mL
CCC/C=C/C(=O)N[C@@H](Cc1ccccc1)C(=O)N[C@H]1COC(=O)[C@@H]2CCCN2C(=O)[C@H](C)NC(=O)[C@H](C)N(C)C(=O)[C@@H]2CCCN2C1=O [ADEP7] (X1-FSP[NMeA]AP; ester 2-C),MIC,[1],4 µg/mL
same,MIC,[3],0.5 µg/mL
same,MIC,[4],2 µg/mL
same,Resistance rate,[5],4×10^−6
same,Resistance rate,[6],6×10^−7
same,minimal inhibitory concentration (MIC) against S. aureus,[7],8 µg/mL
"C/C=C/C=C/C=C/C(=O)N[C@@H](Cc1ccccc1)C(=O)N[C@H]1COC(=O)[C@@H]2C[C@@H](C)CN2C(=O)[C@H](C)NC(=O)[C@H](C)N(C)C(=O)[C@@H]2CCCN2C1=O [ADEP1] ({Octatrienoyl(2E,4E,6E)}-FSP[NMeA]A[Pro(4R-Me)]; ester 2-C)",MIC,[1],0.5 µg/mL
same,MIC,[2],1 µg/mL
same,MIC,[3],0.063 µg/mL
same,MIC,[4],0.063 µg/mL
same,MIC,[8],0.12 µg/mL
same,MIC,[9],0.12 µg/mL
same,MIC,[10],0.12 µg/mL
same,MIC,[11],>64 µg/mL
same,MIC,[12],>64 µg/mL
same,MIC,[13],>64 µg/mL
same,MIC,[14],>64 µg/mL
same,MIC,[15],>64 µg/mL
same,MIC,[16],>64 µg/mL
same,MIC,[17],>64 µg/mL
same,MIC,[18],>64 µg/mL
same,MIC,[19],>32 µg/mL
same,MIC,[20],>32 µg/mL
same,MIC,[21],>32 µg/mL
same,MIC,[22],>32 µg/mL
same,MIC,[23],>32 µg/mL
same,MIC,[24],>64 µg/mL
same,MIC,[25],0.5 µg/mL
same,MIC,[26],>64 µg/mL
same,MIC,[27],8 µg/mL
same,MIC,[28],>64 µg/mL
same,MIC,[29],16 µg/mL
same,MIC,[30],>64 µg/mL
same,stability,[31],rather unstable
same,spontaneous resistance frequencies,[32],in the same range
